{
  "source": "the supplement of paper PMC10307832",
  "experiment_in_all_cases": "relative viability (nuclei count vs DMSO), 5 days (fraction); higher = more cells survive",
  "key": {"[1]": {"system": "ABC-1", "method_in_brief": "(§1)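 One day after seeding in 1536-well plates, lung cancer cell lines were dosed by pin tool. Dosing was either single-drug or a fixed anchor-drug dose plus five library-drug doses (not always all listed) in √10 steps. After 5 days, nuclei were stained in one fix-and-stain step and counted on 4× images, and relative viability is the nuclei count of treated wells over that of vehicle wells, given as the median of duplicate plates.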"}, "[2]": {"system": "EKVX", "method_in_brief": "as §1"}, "[3]": {"system": "NCI-H1623", "method_in_brief": "as §1"}, "[4]": {"system": "NCI-H1993", "method_in_brief": "as §1"}, "[5]": {"system": "NCI-H2085", "method_in_brief": "as §1"}, "[6]": {"system": "NCI-H2126", "method_in_brief": "as §1"}, "[7]": {"system": "RERF-LC-KJ", "method_in_brief": "as §1"}, "[8]": {"system": "A549", "method_in_brief": "as §1"}, "[9]": {"system": "Calu-6", "method_in_brief": "as §1"}, "[10]": {"system": "EBC-1", "method_in_brief": "as §1"}, "[11]": {"system": "HCC-44", "method_in_brief": "as §1"}, "[12]": {"system": "IA-LM", "method_in_brief": "as §1"}, "[13]": {"system": "NCI-H1299", "method_in_brief": "as §1"}, "[14]": {"system": "NCI-H1648", "method_in_brief": "as §1"}, "[15]": {"system": "NCI-H1703", "method_in_brief": "as §1"}},
  "data": [
    {"smiles": "O=c1cc(-c2cccc3c2Sc2ccccc2S3)oc(N2CCOCC2)c1", "note": "+ Cc1nc(Nc2ncc(C(=O)Nc3c(C)cccc3Cl)s2)cc(N2CCN(CCO)CC2)n1 [Dasatinib] (partner 0.075 µM)", "values": [
      {"measurement": "relative viability", "setting": "[1]; first compound 0.08 µM", "result": 0.604},
      {"measurement": "relative viability", "setting": "[1]; first compound 0.253 µM", "result": 0.651},
      {"measurement": "relative viability", "setting": "[1]; first compound 0.8 µM", "result": 0.531},
      {"measurement": "relative viability", "setting": "[1]; first compound 2.53 µM", "result": 0.492},
      {"measurement": "relative viability", "setting": "[1]; first compound 8 µM", "result": 0.653},
      {"measurement": "relative viability", "setting": "[2]; first compound 0.08 µM", "result": 0.605},
      {"measurement": "relative viability", "setting": "[2]; first compound 0.253 µM", "result": 0.517},
      {"measurement": "relative viability", "setting": "[2]; first compound 0.8 µM", "result": 0.315},
      {"measurement": "relative viability", "setting": "[2]; first compound 2.53 µM", "result": 0.501},
      {"measurement": "relative viability", "setting": "[2]; first compound 8 µM", "result": 0.355},
      {"measurement": "relative viability", "setting": "[3]; first compound 0.08 µM", "result": 0.488},
      {"measurement": "relative viability", "setting": "[3]; first compound 0.253 µM", "result": 0.568},
      {"measurement": "relative viability", "setting": "[3]; first compound 0.8 µM", "result": 0.501},
      {"measurement": "relative viability", "setting": "[3]; first compound 2.53 µM", "result": 0.57},
      {"measurement": "relative viability", "setting": "[3]; first compound 8 µM", "result": 0.536},
      {"measurement": "relative viability", "setting": "[4]; first compound 0.08 µM", "result": 0.519},
      {"measurement": "relative viability", "setting": "[4]; first compound 0.253 µM", "result": 0.581},
      {"measurement": "relative viability", "setting": "[4]; first compound 0.8 µM", "result": 0.544},
      {"measurement": "relative viability", "setting": "[4]; first compound 2.53 µM", "result": 0.525},
      {"measurement": "relative viability", "setting": "[4]; first compound 8 µM", "result": 0.56},
      {"measurement": "relative viability", "setting": "[5]; first compound 0.08 µM", "result": 0.222},
      {"measurement": "relative viability", "setting": "[5]; first compound 0.253 µM", "result": 0.238},
      {"measurement": "relative viability", "setting": "[5]; first compound 0.8 µM", "result": 0.225},
      {"measurement": "relative viability", "setting": "[5]; first compound 2.53 µM", "result": 0.241},
      {"measurement": "relative viability", "setting": "[5]; first compound 8 µM", "result": 0.236},
      {"measurement": "relative viability", "setting": "[6]; first compound 0.08 µM", "result": 0.59},
      {"measurement": "relative viability", "setting": "[6]; first compound 0.253 µM", "result": 0.456},
      {"measurement": "relative viability", "setting": "[6]; first compound 0.8 µM", "result": 0.43},
      {"measurement": "relative viability", "setting": "[6]; first compound 2.53 µM", "result": 0.534},
      {"measurement": "relative viability", "setting": "[6]; first compound 8 µM", "result": 0.495},
      {"measurement": "relative viability", "setting": "[7]; first compound 0.08 µM", "result": 0.685},
      {"measurement": "relative viability", "setting": "[7]; first compound 0.253 µM", "result": 0.975},
      {"measurement": "relative viability", "setting": "[7]; first compound 0.8 µM", "result": 0.918},
      {"measurement": "relative viability", "setting": "[7]; first compound 2.53 µM", "result": 0.758},
      {"measurement": "relative viability", "setting": "[7]; first compound 8 µM", "result": 0.74}
    ]},
    {"smiles": "O=c1cc(-c2cccc3c2Sc2ccccc2S3)oc(N2CCOCC2)c1", "note": "+ O=C(c1cc(Cc2n[nH]c(=O)c3ccccc23)ccc1F)N1CCN(C(=O)C2CC2)CC1 [Olaparib] (partner 8 µM)", "values": [
      {"measurement": "relative viability", "setting": "[8]; first compound 0.08 µM", "result": 0.224},
      {"measurement": "relative viability", "setting": "[8]; first compound 0.253 µM", "result": 0.348},
      {"measurement": "relative viability", "setting": "[8]; first compound 0.8 µM", "result": 0.277},
      {"measurement": "relative viability", "setting": "[8]; first compound 2.53 µM", "result": 0.354},
      {"measurement": "relative viability", "setting": "[8]; first compound 8 µM", "result": 0.363},
      {"measurement": "relative viability", "setting": "[1]; first compound 0.08 µM", "result": 0.821},
      {"measurement": "relative viability", "setting": "[1]; first compound 0.253 µM", "result": 0.718},
      {"measurement": "relative viability", "setting": "[1]; first compound 0.8 µM", "result": 0.735},
      {"measurement": "relative viability", "setting": "[1]; first compound 2.53 µM", "result": 0.777},
      {"measurement": "relative viability", "setting": "[1]; first compound 8 µM", "result": 0.75},
      {"measurement": "relative viability", "setting": "[9]; first compound 0.08 µM", "result": 0.63},
      {"measurement": "relative viability", "setting": "[9]; first compound 0.253 µM", "result": 0.636},
      {"measurement": "relative viability", "setting": "[9]; first compound 0.8 µM", "result": 0.601},
      {"measurement": "relative viability", "setting": "[9]; first compound 2.53 µM", "result": 0.599},
      {"measurement": "relative viability", "setting": "[9]; first compound 8 µM", "result": 0.549},
      {"measurement": "relative viability", "setting": "[10]; first compound 0.08 µM", "result": 0.618},
      {"measurement": "relative viability", "setting": "[10]; first compound 0.253 µM", "result": 0.831},
      {"measurement": "relative viability", "setting": "[10]; first compound 0.8 µM", "result": 0.732},
      {"measurement": "relative viability", "setting": "[10]; first compound 2.53 µM", "result": 0.619},
      {"measurement": "relative viability", "setting": "[10]; first compound 8 µM", "result": 0.324},
      {"measurement": "relative viability", "setting": "[2]; first compound 0.08 µM", "result": 0.829},
      {"measurement": "relative viability", "setting": "[2]; first compound 0.253 µM", "result": 0.852},
      {"measurement": "relative viability", "setting": "[2]; first compound 0.8 µM", "result": 0.623},
      {"measurement": "relative viability", "setting": "[2]; first compound 2.53 µM", "result": 0.803},
      {"measurement": "relative viability", "setting": "[2]; first compound 8 µM", "result": 1.05},
      {"measurement": "relative viability", "setting": "[11]; first compound 0.08 µM", "result": 0.927},
      {"measurement": "relative viability", "setting": "[11]; first compound 0.253 µM", "result": 1.02},
      {"measurement": "relative viability", "setting": "[11]; first compound 0.8 µM", "result": 0.972},
      {"measurement": "relative viability", "setting": "[11]; first compound 2.53 µM", "result": 1.02},
      {"measurement": "relative viability", "setting": "[11]; first compound 8 µM", "result": 0.951},
      {"measurement": "relative viability", "setting": "[12]; first compound 0.08 µM", "result": 0.848},
      {"measurement": "relative viability", "setting": "[12]; first compound 0.253 µM", "result": 1.07},
      {"measurement": "relative viability", "setting": "[12]; first compound 0.8 µM", "result": 0.934},
      {"measurement": "relative viability", "setting": "[12]; first compound 2.53 µM", "result": 0.796},
      {"measurement": "relative viability", "setting": "[12]; first compound 8 µM", "result": 0.866},
      {"measurement": "relative viability", "setting": "[13]; first compound 0.08 µM", "result": 0.951},
      {"measurement": "relative viability", "setting": "[13]; first compound 0.253 µM", "result": 1.05},
      {"measurement": "relative viability", "setting": "[13]; first compound 0.8 µM", "result": 1.04},
      {"measurement": "relative viability", "setting": "[13]; first compound 2.53 µM", "result": 1.02},
      {"measurement": "relative viability", "setting": "[13]; first compound 8 µM", "result": 0.909},
      {"measurement": "relative viability", "setting": "[14]; first compound 0.253 µM", "result": 1.01},
      {"measurement": "relative viability", "setting": "[14]; first compound 0.8 µM", "result": 0.781},
      {"measurement": "relative viability", "setting": "[14]; first compound 8 µM", "result": 1.2},
      {"measurement": "relative viability", "setting": "[15]; first compound 0.08 µM", "result": 0.314},
      {"measurement": "relative viability", "setting": "[15]; first compound 0.253 µM", "result": 0.445},
      {"measurement": "relative viability", "setting": "[15]; first compound 0.8 µM", "result": 0.406},
      {"measurement": "relative viability", "setting": "[15]; first compound 2.53 µM", "result": 0.246},
      {"measurement": "relative viability", "setting": "[15]; first compound 8 µM", "result": 0.227},
      {"measurement": "relative viability", "setting": "[4]; first compound 0.08 µM", "result": 1.05},
      {"measurement": "relative viability", "setting": "[4]; first compound 0.253 µM", "result": 1.1},
      {"measurement": "relative viability", "setting": "[4]; first compound 0.8 µM", "result": 0.986},
      {"measurement": "relative viability", "setting": "[4]; first compound 2.53 µM", "result": 0.965},
      {"measurement": "relative viability", "setting": "[4]; first compound 8 µM", "result": 1.12},
      {"measurement": "relative viability", "setting": "[5]; first compound 0.08 µM", "result": 0.771},
      {"measurement": "relative viability", "setting": "[5]; first compound 0.253 µM", "result": 0.846},
      {"measurement": "relative viability", "setting": "[5]; first compound 0.8 µM", "result": 0.857},
      {"measurement": "relative viability", "setting": "[5]; first compound 2.53 µM", "result": 0.762},
      {"measurement": "relative viability", "setting": "[5]; first compound 8 µM", "result": 0.654},
      {"measurement": "relative viability", "setting": "[6]; first compound 0.08 µM", "result": 1.06},
      {"measurement": "relative viability", "setting": "[6]; first compound 0.253 µM", "result": 0.991},
      {"measurement": "relative viability", "setting": "[6]; first compound 0.8 µM", "result": 1.01},
      {"measurement": "relative viability", "setting": "[6]; first compound 2.53 µM", "result": 0.9},
      {"measurement": "relative viability", "setting": "[6]; first compound 8 µM", "result": 0.91},
      {"measurement": "relative viability", "setting": "[7]; first compound 0.08 µM", "result": 1.08},
      {"measurement": "relative viability", "setting": "[7]; first compound 0.253 µM", "result": 1.07},
      {"measurement": "relative viability", "setting": "[7]; first compound 0.8 µM", "result": 0.9},
      {"measurement": "relative viability", "setting": "[7]; first compound 2.53 µM", "result": 0.977},
      {"measurement": "relative viability", "setting": "[7]; first compound 8 µM", "result": 0.843}
    ]}
  ]
}
